In publication PMC5063381, “Characterization of the Neisseria meningitidis Helicase RecG” (PLoS ONE, 2016):

T1: RecGNm (Neisseria meningitidis, UniProt Q9JY17)
T1 construct: gene recG; ORF in pET28b(+) (pGTB1, NdeI/XhoI), N-terminal 6xHis-tag, expressed in E. coli ER2566; Ni-NTA and Superdex 75
T1 sequence (Q9JY17 1-680): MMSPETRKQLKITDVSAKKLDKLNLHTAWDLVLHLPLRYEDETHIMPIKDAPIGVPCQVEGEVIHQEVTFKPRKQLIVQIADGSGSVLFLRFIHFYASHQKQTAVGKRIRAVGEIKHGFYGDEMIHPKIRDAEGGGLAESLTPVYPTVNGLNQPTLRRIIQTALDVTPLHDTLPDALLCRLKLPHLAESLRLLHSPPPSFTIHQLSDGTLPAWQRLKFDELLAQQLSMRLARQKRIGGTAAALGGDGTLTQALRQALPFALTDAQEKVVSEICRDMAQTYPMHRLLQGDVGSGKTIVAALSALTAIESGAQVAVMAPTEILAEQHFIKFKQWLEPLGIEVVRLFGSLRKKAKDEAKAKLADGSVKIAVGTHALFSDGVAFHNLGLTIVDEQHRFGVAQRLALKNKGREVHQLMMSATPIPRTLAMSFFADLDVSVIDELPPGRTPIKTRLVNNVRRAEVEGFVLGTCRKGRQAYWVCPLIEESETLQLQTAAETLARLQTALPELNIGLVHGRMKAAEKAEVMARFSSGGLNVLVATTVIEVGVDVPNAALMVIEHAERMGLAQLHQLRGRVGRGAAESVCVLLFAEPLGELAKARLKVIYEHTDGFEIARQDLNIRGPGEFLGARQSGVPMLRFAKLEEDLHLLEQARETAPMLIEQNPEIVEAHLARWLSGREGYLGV

T2: Neisseria meningitidis DNA repair/recombination helicase RecG (Neisseria meningitidis strain MC58, UniProt Q9JY17 1-680)
T2 construct: RecG helicase of Neisseria meningitidis strain MC58; the ORF was amplified from genomic DNA and cloned into pET28b(+) between XhoI and NdeI (plasmid pGTB1); also called RecGNm; Nm RecG; source: E. coli ER2566, purified (Ni-NTA, gel filtration on Superdex 75)
T2 sequence (looked up): T1 sequence (Q9JY17 1-680)

B1: Neisseria meningitidis single-stranded DNA-binding protein SSB (natural protein, Neisseria meningitidis strain MC58, UniProt P66848 1-174, looked up)
chain: MSLNKVILIGRLGRDPEVRYMPNGEAVCNFSVATSETWNDRNGQRVERTEWHNITMYRKLAEIAGQYLKKGGLVYLEGRIQSRKYQGKDGIERTAYDIVANEMKMLGGRNENSGGAPYEEGYGQSQEAYQRPAQQSRQPASDAPSHPQEAPAAPRRQPVPAAAPVEDIDDDIPF
modifications: Monolith NT Protein Labeling Kit RED-NHS dye, degree of labelling 0.65 (in the MST only)
notes: It was unlabelled in the gel filtration and RED-NHS labelled in the MST; also called SSBNm; source: plasmid pEH1 (pQE-30 harboring ssb from Nm MC58)

Tests used:
RecGNm = molecular target: T1, RecGNm; experiment: TLC ATPase assay with [gamma-32P]ATP; type: biochemical; conditions: 100 nM DNA cofactor (branched DNA), 2 mM MgCl2, pH 7.5, 37 °C; labelled compound as tracer
[1] = molecular target: T2, Neisseria meningitidis DNA …; experiment: MST; 21 nM RED-NHS labelled SSBNm, RecGNm titrated; 20 mM HEPES pH 7.5, 300 mM NaCl, 0.05% Tween 20, 0.1% Pluronic F-127, 0.1% PEG 8000, 2 mM DTT; 22°C, 40% MST power; conditions: both partners purified

Row | Molecule | % ATP hydrolysis (RecGNm) | Kd [1] [nM]
1 | Nc1ncnc2c1ncn2[C@@H]1O[C@H](COP(=O)(O)OP(=O)(O)OP(=O)(O)O)[C@@H](O)[C@H]1O [ATP] | RecGNm displayed comparable capacity of ATP hydrolysis in the presence of different types of branched | –
2 | B1 | – | 558 ± 139
